The values below come from US20240109865A1, “INDAZOLE COMPOUNDS AS KINASE INHIBITORS” (TYRA BIOSCIENCES, INC., priority 2020, published 2024).

Test [1] concerns the target FGFR1 (Homo sapiens (Human), UniProt P11362). As to the kind of experiment: Kinase assay, binding constants (Kd), kinase-tagged T7 phage, qPCR. Put shortly: (§1)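 Competition binding: T7 phage-tagged kinase + biotin-ligand beads + compound (11 pts, 3-fold, 0.9% DMSO). Elution 30 min RT with free ligand; qPCR quantitation. Kd via Hill fit, slope −1.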
Test [2] deals with FGFR2 (Homo sapiens (Human), UniProt P21802). The test is described as above. An outline of the steps:
as §1

For test [3], the target named is FGFR4 (Homo sapiens (Human), UniProt P22455). Described as above. Put shortly: as §1
Sequence of FGFR4 (P22455 22-802): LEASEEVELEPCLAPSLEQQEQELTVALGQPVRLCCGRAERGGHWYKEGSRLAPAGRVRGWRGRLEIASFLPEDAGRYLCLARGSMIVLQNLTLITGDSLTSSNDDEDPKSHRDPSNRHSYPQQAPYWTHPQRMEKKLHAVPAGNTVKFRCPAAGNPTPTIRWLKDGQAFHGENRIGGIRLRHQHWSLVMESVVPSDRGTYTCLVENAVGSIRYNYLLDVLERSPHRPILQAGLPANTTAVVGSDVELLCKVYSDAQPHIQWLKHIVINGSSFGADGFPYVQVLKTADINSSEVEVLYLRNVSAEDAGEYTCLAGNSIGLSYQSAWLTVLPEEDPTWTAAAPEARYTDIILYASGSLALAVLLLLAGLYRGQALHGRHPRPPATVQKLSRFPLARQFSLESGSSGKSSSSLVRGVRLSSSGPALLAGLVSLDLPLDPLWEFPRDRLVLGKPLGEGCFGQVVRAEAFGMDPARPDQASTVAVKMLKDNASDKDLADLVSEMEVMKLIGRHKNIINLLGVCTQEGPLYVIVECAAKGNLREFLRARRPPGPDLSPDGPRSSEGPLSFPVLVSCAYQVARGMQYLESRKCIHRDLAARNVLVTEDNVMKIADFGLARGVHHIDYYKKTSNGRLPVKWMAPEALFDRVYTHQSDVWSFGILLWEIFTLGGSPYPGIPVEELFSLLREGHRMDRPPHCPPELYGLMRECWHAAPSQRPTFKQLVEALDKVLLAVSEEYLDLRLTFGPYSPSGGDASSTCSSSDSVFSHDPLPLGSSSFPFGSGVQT
The target in test [4] is FGFR3 (Homo sapiens (Human), UniProt P22607). Described as above. An outline of the steps:
as §1

Test [5] addresses FGFR3 (V555M) (Homo sapiens (Human), UniProt P22607, V555M). The test is described as above. The settings on record: V555M mutant. An outline of the steps:
as §1

For test [6], the target named is FGFR1-BCR Ba/F3 cells (Homo sapiens, UniProt P11362). As to the kind of experiment: Ba/F3 cell viability assay (CellTiter-Glo 2.0), FGFR1-BCR Ba/F3. The following applies: read-out: Ba/F3 Cells FGFR1 (IC50 nM), 48 hours, Cell Titer Glo 2.0. Type of test: cell-based. Put shortly:
(§2)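 IL3-independent Ba/F3 lines driven by FGFR1-BCR or FGFR3-BAIAP2L1 fusions, in RPMI1640/10% FBS. 9-dose 10-fold series from 30 μM, triplicate, 48 h at 37 °C; viability by CellTiter-Glo 2.0 ATP luminescence relative to DMSO control, IC50 from 4-parameter sigmoidal fit.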

Test [7] has as its target FGFR3-BAIAP2L1 Ba/F3 cells (Homo sapiens, UniProt P22607). The experiment in a line: Ba/F3 cell viability assay (CellTiter-Glo 2.0), FGFR3-BAIAP2L1 Ba/F3. Format: cell-based. The following applies: for Ba/F3 FGFR1/FGFR3 Selectivity: FGFR3 > FGFR1 selectivity ratio in Ba/F3 FGFR fusion cell based assays; for IC50: read-out: Ba/F3 Cells FGFR3 (IC50 nM), FGFR3-BAIAP2L1 Ba/F3 cells, 48 hours, Cell Titer Glo 2.0. An outline of the steps: as §2
(ATP-based viability assays read luminescence as a measure of living cells.)

Sequence of FGFR3 (V555M) (P22607 23-806 V555M): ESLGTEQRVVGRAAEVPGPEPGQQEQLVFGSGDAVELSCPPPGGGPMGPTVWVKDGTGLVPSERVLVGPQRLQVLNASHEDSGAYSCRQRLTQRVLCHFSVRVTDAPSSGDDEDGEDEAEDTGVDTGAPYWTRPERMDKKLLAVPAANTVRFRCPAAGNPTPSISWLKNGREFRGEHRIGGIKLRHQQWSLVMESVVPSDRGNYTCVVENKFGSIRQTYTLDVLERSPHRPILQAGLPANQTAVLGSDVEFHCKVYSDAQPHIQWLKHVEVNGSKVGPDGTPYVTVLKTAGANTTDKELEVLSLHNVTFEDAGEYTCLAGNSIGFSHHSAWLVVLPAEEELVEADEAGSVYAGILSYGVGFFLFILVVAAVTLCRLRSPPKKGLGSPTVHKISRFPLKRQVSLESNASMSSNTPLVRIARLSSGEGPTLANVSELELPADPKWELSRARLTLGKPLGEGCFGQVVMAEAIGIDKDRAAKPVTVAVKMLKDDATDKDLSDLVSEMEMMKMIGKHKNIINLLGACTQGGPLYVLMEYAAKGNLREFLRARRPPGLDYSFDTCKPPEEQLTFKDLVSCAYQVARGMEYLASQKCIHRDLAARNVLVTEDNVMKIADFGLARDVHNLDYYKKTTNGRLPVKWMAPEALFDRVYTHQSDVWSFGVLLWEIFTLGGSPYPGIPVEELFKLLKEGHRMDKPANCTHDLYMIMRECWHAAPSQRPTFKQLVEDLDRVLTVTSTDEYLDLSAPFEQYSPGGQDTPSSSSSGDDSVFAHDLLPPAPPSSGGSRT
Sequence of FGFR1 (P11362 22-822): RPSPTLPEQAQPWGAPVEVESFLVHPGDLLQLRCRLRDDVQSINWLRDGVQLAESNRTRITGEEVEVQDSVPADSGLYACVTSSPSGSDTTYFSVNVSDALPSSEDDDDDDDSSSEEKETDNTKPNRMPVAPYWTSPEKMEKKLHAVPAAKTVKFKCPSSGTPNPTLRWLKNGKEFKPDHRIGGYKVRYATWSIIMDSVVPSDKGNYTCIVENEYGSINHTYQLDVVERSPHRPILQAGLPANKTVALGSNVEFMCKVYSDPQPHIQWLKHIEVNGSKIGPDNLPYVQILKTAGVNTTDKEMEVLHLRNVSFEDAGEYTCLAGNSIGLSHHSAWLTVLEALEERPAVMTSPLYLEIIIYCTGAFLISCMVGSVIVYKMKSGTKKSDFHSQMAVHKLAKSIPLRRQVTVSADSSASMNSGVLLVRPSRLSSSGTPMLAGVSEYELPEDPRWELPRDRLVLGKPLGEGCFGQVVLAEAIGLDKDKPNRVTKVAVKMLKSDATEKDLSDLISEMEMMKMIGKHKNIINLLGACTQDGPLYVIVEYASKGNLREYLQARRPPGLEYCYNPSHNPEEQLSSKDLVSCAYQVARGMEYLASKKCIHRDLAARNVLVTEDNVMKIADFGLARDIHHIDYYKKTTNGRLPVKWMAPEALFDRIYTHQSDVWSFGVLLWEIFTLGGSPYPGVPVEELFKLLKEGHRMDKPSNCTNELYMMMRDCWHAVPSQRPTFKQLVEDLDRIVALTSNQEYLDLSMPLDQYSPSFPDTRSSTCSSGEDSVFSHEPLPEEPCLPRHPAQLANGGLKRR
Sequence of FGFR1-BCR Ba/F3 cells (P11362 22-822 limits assumed, change not shown): as the sequence (P11362 22-822) above
Sequence of FGFR3-BAIAP2L1 Ba/F3 cells (P22607 23-806 limits assumed, change not shown): as the sequence (P22607 23-806 V555M) above, with M533V counted along it
Sequence of FGFR3 (P22607 23-806): as the sequence (P22607 23-806 V555M) above, with M533V counted along it
Sequence of FGFR2 (P21802 22-821): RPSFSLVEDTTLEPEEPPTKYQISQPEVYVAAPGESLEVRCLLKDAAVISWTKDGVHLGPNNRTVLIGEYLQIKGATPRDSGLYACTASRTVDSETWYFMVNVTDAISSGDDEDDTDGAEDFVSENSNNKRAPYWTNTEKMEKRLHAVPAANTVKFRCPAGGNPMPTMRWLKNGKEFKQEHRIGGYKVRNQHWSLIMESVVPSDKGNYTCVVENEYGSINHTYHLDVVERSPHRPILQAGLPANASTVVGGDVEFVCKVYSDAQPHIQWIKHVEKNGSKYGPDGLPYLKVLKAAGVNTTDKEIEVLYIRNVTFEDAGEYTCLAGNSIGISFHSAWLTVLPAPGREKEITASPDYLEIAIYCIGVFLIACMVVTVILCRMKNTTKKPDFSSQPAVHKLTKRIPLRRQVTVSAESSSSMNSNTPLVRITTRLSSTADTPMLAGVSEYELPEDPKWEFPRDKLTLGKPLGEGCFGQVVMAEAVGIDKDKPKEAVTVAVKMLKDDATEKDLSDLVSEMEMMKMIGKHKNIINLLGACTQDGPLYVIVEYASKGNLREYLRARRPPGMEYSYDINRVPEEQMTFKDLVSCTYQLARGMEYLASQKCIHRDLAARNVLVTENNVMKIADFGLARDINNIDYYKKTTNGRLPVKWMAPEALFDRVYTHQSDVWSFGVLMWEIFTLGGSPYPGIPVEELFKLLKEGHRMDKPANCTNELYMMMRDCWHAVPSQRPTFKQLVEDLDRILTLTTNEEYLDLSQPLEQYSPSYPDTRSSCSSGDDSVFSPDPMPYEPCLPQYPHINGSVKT

The term Kd denotes the constant that tells how readily two partners part at equilibrium. `COC(=O)N1CCCC2(C1)CN(c1ncc(-c3n[nH]c4ccc(O[C@H](C)c5c(Cl)cncc5Cl)cc34)cn1)C2` [Example 138, methyl 2-[5-[5-[(1R)-1-(3,5-dichloro-4-pyridyl)ethoxy]-1H-indazol-3-yl]pyrimidin-2-yl]-2,8-diazaspiro[3.5]nonane-8-carboxylate]: the dissociation constant (Kd) in test [1] was 20 to 100 nM; in test [2], 20 to 100 nM; in test [3], 1 to 20 nM; in test [4] it was 1 to 20 nM; in test [5] it was 1 to 20 nM. The figures for the IC50 in test [6] and in test [7] were over 300 nM and 20 to 100 nM, respectively. In addition, the “Ba/F3 FGFR1/FGFR3 Selectivity” value in test [7] stood at 8.
Turning to `Cc1cncc(C)c1[C@H](C)Oc1ccc2[nH]nc(-c3ccc(N4CC5(C4)CN(S(C)(=O)=O)C5)nc3)c2c1` [Example 140, 5-[(1S)-1-(3,5-dimethyl-4-pyridyl)ethoxy]-3-[6-(2-methylsulfonyl-2,6-diazaspiro[3.3]heptan-6-yl)-3-pyridyl]-1H-indazole], the equilibrium dissociation constant (Kd) in test [1] is over 300 nM; in test [2], over 300 nM; in test [3], over 300 nM; in test [4], 20 to 100 nM; in test [5], 1 to 20 nM. The IC50 in test [6] was over 300 nM; in test [7], 100 to 300 nM. Moreover, the “Ba/F3 FGFR1/FGFR3 Selectivity” value in test [7] is listed as 19.
Turning to `Cc1cnnc(C)c1[C@@H](C)Oc1ccc2[nH]nc(-c3cnc(N4CC5(CCS(=O)(=O)C5)C4)nc3)c2c1` [Example 141, 2-[5-[5-[(1R)-1-(3,5-dimethylpyridazin-4-yl)ethoxy]-1H-indazol-3-yl]pyrimidin-2-yl]-6λ^6-thia-2-azaspiro[3.4]octane 6,6-dioxide], the Kd in test [1] was in the range of 20 to 100 nM; in test [2] it was 20 to 100 nM; in test [3], 1 to 20 nM; in test [4] it was 1 to 20 nM; in test [5], 1 to 20 nM. In addition, the IC50 in test [6] and in test [7] was over 300 nM in each case. For the same molecule, in test [7], the “Ba/F3 FGFR1/FGFR3 Selectivity” value is 3.
In the case of `COC(=O)N1CC2(C1)CN(c1ncc(-c3n[nH]c4ccc(O[C@H](C)c5c(C)cnnc5C)cc34)cn1)C2` [Example 143, methyl 6-[5-[5-[(1R)-1-(3,5-dimethylpyridazin-4-yl)ethoxy]-1H-indazol-3-yl]pyrimidin-2-yl]-2,6-diazaspiro[3.3]heptane-2-carboxylate], the Kd in test [1] was 100 to 300 nM; in test [2], 20 to 100 nM; in test [3], 1 to 20 nM; in test [4], 1 to 20 nM; in test [5] it was 1 to 20 nM. The IC50 was over 300 nM in test [6] and 100 to 300 nM in test [7]. Also, the “Ba/F3 FGFR1/FGFR3 Selectivity” value in test [7] worked out at 14.
For `Cc1cnnc(C)c1[C@@H](C)Oc1ccc2[nH]nc(-c3ccc(N4CC5(CCS(=O)(=O)C5)C4)nc3)c2c1` [Example 144, 2-[5-[5-[(1R)-1-(3,5-dimethylpyridazin-4-yl)ethoxy]-1H-indazol-3-yl]-2-pyridyl]-6λ^6-thia-2-azaspiro[3.4]octane 6,6-dioxide], the equilibrium dissociation constant (Kd) in test [1], in test [2], in test [3], in test [4] and in test [5] was 1 to 20 nM throughout. Further, the figures for the IC50 in test [6] and in test [7] were over 300 nM and 20 to 100 nM, respectively. The “Ba/F3 FGFR1/FGFR3 Selectivity” value in test [7] amounted to 33.
Regarding `Cc1cnnc(C)c1[C@H](C)Oc1ccc2[nH]nc(-c3ccc(N4CC5(CCS(=O)(=O)C5)C4)nc3)c2c1` [Example 145, 2-[5-[5-[(1S)-1-(3,5-dimethylpyridazin-4-yl)ethoxy]-1H-indazol-3-yl]-2-pyridyl]-6λ^6-thia-2-azaspiro[3.4]octane 6,6-dioxide], the Kd in test [1] is over 300 nM; in test [2] it was 20 to 100 nM; in test [3], 100 to 300 nM; in test [4] it was 20 to 100 nM; in test [5], 1 to 20 nM. Further, the IC50 in test [6] and in test [7] was over 300 nM each time. In addition, in test [7], the “Ba/F3 FGFR1/FGFR3 Selectivity” value was found to be 2.
For `CCOC(=O)N1CC2(C1)CN(c1ncc(-c3n[nH]c4ccc(O[C@H](C)c5c(C)cnnc5C)cc34)cn1)C2` [Example 146, ethyl 6-[5-[5-[(1R)-1-(3,5-dimethylpyridazin-4-yl)ethoxy]-1H-indazol-3-yl]pyrimidin-2-yl]-2,6-diazaspiro[3.3]heptane-2-carboxylate], the Kd in test [1] lay within 100 to 300 nM; in test [2] it was 20 to 100 nM; in test [3], 1 to 20 nM; in test [4], 1 to 20 nM; in test [5], 1 to 20 nM. The IC50 in test [6] was over 300 nM; in test [7], 100 to 300 nM. The “Ba/F3 FGFR1/FGFR3 Selectivity” value in test [7] worked out at 15.
Consider `Cc1cnnc(C)c1[C@@H](C)Oc1ccc2[nH]nc(-c3ccc(N4CC5(C4)CN(S(C)(=O)=O)C5)nc3)c2c1` [Example 148, 5-[(1R)-1-(3,5-dimethylpyridazin-4-yl)ethoxy]-3-[6-(2-methylsulfonyl-2,6-diazaspiro[3.3]heptan-6-yl)-3-pyridyl]-1H-indazole], for which the Kd in test [1], in test [2], in test [3], in test [4] and in test [5] was 1 to 20 nM in each case. Also, the IC50 in test [6] is over 300 nM; in test [7], 20 to 100 nM. For the same molecule, the “Ba/F3 FGFR1/FGFR3 Selectivity” value in test [7] stood at 16.
As for `C[C@H](Oc1ccc2[nH]nc(-c3ccc(N4CC5(C4)CN(S(C)(=O)=O)C5)nc3)c2c1)c1c(Cl)cncc1Cl` [Example 160, 5-[(1S)-1-(3,5-dichloro-4-pyridyl)ethoxy]-3-[6-(2-methylsulfonyl-2,6-diazaspiro[3.3]heptan-6-yl)-3-pyridyl]-1H-indazole], the Kd in test [1] is over 300 nM; in test [2], 100 to 300 nM; in test [3], 100 to 300 nM; in test [4], 20 to 100 nM; in test [5] it was 1 to 20 nM. The IC50 in test [6] was over 300 nM; in test [7], 100 to 300 nM. In addition, in test [7], the “Ba/F3 FGFR1/FGFR3 Selectivity” value was determined as 17.
As to `C[C@@H](Oc1ccc2[nH]nc(-c3ccc(N4CC5(CCCN(S(C)(=O)=O)C5)C4)nc3)c2c1)c1c(Cl)cncc1Cl` [Example 162, 5-[(1R)-1-(3,5-dichloro-4-pyridyl)ethoxy]-3-[6-(8-methylsulfonyl-2,8-diazaspiro[3.5]nonan-2-yl)-3-pyridyl]-1H-indazole], the Kd was in the range of 20 to 100 nM in test [1]; 1 to 20 nM in test [2]; 1 to 20 nM in test [3]; 1 to 20 nM in test [4]; 1 to 20 nM in test [5]. For the same molecule, the IC50 lay within 100 to 300 nM in test [6] and 1 to 20 nM in test [7]. Further, in test [7], the “Ba/F3 FGFR1/FGFR3 Selectivity” value is 12.
For `C[C@@H](Oc1ccc2[nH]nc(-c3ccc(N4CC5(CCN(S(C)(=O)=O)C5)C4)nc3)c2c1)c1c(Cl)cncc1Cl` [Example 163, 5-[(1R)-1-(3,5-dichloro-4-pyridyl)ethoxy]-3-[6-(7-methylsulfonyl-2,7-diazaspiro[3.4]octan-2-yl)-3-pyridyl]-1H-indazole], the dissociation constant Kd in test [1], in test [2], in test [3], in test [4] and in test [5] was 1 to 20 nM each time. The IC50 lay within 20 to 100 nM in test [6] and 1 to 20 nM in test [7]. Further, the “Ba/F3 FGFR1/FGFR3 Selectivity” value in test [7] stood at 17.
Regarding `COC(=O)N1CCCC2(C1)CN(c1ccc(-c3n[nH]c4ccc(O[C@H](C)c5c(Cl)cncc5Cl)cc34)cn1)C2` [Example 165, methyl 2-[5-[5-[(1R)-1-(3,5-dichloro-4-pyridyl)ethoxy]-1H-indazol-3-yl]-2-pyridyl]-2,8-diazaspiro[3.5]nonane-8-carboxylate], the Kd in test [1] fell in the range of 20 to 100 nM; in test [2] it was 1 to 20 nM; in test [3] it was 1 to 20 nM; in test [4] it was 1 to 20 nM; in test [5], 1 to 20 nM. For the same molecule, the IC50 in test [6] is 100 to 300 nM; in test [7], 1 to 20 nM. The “Ba/F3 FGFR1/FGFR3 Selectivity” value in test [7] is listed as 16.
On to `C[C@@H](Oc1ccc2[nH]nc(-c3cnn(C4CCNCC4)c3)c2c1)c1cc(F)cc(F)c1` [Example 166, 5-[(1R)-1-(3,5-difluorophenyl)ethoxy]-3-[1-(4-piperidyl)pyrazol-4-yl]-1H-indazole], for which the Kd in test [1] is 20 to 100 nM; in test [2] it was 1 to 20 nM; in test [3], over 300 nM; in test [4] it was 1 to 20 nM; in test [5] it was 1 to 20 nM. Moreover, the values for the IC50 in test [6] and in test [7] were over 300 nM and 100 to 300 nM, respectively. For the same molecule, the “Ba/F3 FGFR1/FGFR3 Selectivity” value in test [7] stood at 6.
As for `C[C@@H](Oc1ccc2[nH]nc(-c3cnn(C4CCN(C5COC5)CC4)c3)c2c1)c1cc(F)cc(F)c1` [Example 168, 5-[(1R)-1-(3,5-difluorophenyl)ethoxy]-3-[1-[1-(oxetan-3-yl)-4-piperidyl]pyrazol-4-yl]-1H-indazole], the Kd in test [1] is 100 to 300 nM; in test [2], 20 to 100 nM; in test [3] it was over 300 nM; in test [4] it was 1 to 20 nM; in test [5] it was 1 to 20 nM. The IC50 is over 300 nM in test [6] and 20 to 100 nM in test [7]. Moreover, the “Ba/F3 FGFR1/FGFR3 Selectivity” value in test [7] was determined as 8.
